The values below come from paper PMC6894747 (PLoS Pathogens, 2019).

What is called AUC(0-t) is exposure summed from dosing to a finite time, without extrapolation to infinity. By Cmax is commonly meant the peak of the concentration-time curve. As a reminder, the Tmax is the time at which the peak concentration occurs. Broadly, the IC50 is the concentration needed to halve the response being measured. In general, Kd refers to a measure of binding affinity in units of concentration.

Positions of bridges follow the written chain, without caps; N, C: chain ends. Residues, ends and D or L forms follow the SMILES beside them. No end group written: not given here.

For data set [1] the following is noted: rhesus monkeys; for t1/2: plasma, 10 mg/kg i.v., active peptide concentration estimated from ex vivo anti-HIV-1 IIIB activity (DF-IC50) and in vitro IC50, MODFIT; for AUC(0-t) / Cmax / MRT 0-inf_obs / Tmax: concentration estimated from ex vivo anti-HIV-1 activity.
For data set [2], the system named is HIV-1 Bal (subtype B, R5). The format is cell-based. The note with it: for IC50: Bal (subtype B, R5).
Protocol: (§1) Briefly, 1×10^5/mL MT-2 or M7 cells were infected with different HIV-1 viruses at 100 TCID50 (50% tissue culture infective dose) in the presence or absence of peptides at graded concentrations overnight. Then the culture supernatants were replaced with equal volume of fresh medium. On the fourth day post-infection, supernatants were collected and mixed with equal volume of 5% Triton X-100. […] The IC50 values were calculated with CalcuSyn software [35–36], and inhibition curves of best fit were generated with GraphPad Prism.
For data set [3], the target named is T1, gp41 NHR peptide N36 (Human immunodeficiency virus type 1 group M subtype B, UniProt P04578).
T1 construct: purchased KareBay Biochem, Inc; host or cells: solid-phase chemical synthesis
Briefly: Thermostability of 6-HB formed with N36, by CD. Format: binding, HIV-1. The settings on record: CD at 222 nm, 20 to 98 °C at 1.2 °C/min, 10 μM peptide in PBS. The procedure:
CD spectroscopy was conducted as previously described. Briefly, a CHR peptide was incubated with NHR peptide N36 at concentration of 10 μM at 37 °C for 30 min. The separated C-peptides were also measured. The CD spectra were measured on a Jasco spectropolarimeter (model J-815; Jasco, Inc., Easton, MD, USA), using a 1-nm bandwidth with a 1-nm step resolution from 195 to 260 nm at room temperature. The spectra were corrected by subtraction of PBS. The α-helical content was calculated from the CD signal by dividing the mean residue ellipticity [θ] at 222 nm by the value expected for 100% helix formation (-33,000 deg·cm^2·dmol^-1). The thermal denaturation experiment was performed by monitoring the changes in ellipticity [θ] at 222 nm at increasing temperature from 20 to 98 °C at a rate of 1.2 °C/min; data were acquired at a 1-nm bandwidth at 222 nm at a frequency of 0.25 Hz. The melting curve was smoothed, and the midpoint of the thermal unfolding transition (Tm) value was taken as the maximum of the derivative d[θ] 222/dt. Tm value was detected at a peptide concentration of 10 μM in PBS buffer.

Data set [4] concerns human IgG. Briefly: ELISA binding to human IgG. The settings on record: for binding to human IgG: ELISA, dose-dependent, triplicate. The procedure: Next, different concentrations of human or rhesus monkey IgG were added to the peptide-coated plate and incubated at 37 °C for 1 h. Rabbit anti-human IgG-HRP (1:3000 diluted) was added to each well and incubated at 37 °C for another 1 h. Afterwards, the bound IgG-HRP was detected by addition of the HRP substrate TMB. The reaction was terminated by addition of 1 M H2SO4 50 μL. Absorbance at 450 nm was measured using an ELISA reader (Ultra 384; Tecan, Research Triangle Park, NC).
The data was fitted to the “one site – specific binding” using GraphPad Prism. The standard error (SE) is given for a sample size of three replicates per data point.

The target of data set [5] is rhesus monkey IgG. The data set can be described thus: Isothermal titration calorimetry (ITC). Format: binding. The note with it: 300 μM peptide injected into 30 μM rhesus monkey IgG, PBS, 25 °C. The procedure: ITC assay was performed with an ITC microcalorimeter instrument (NANO ITC, TA Instruments, Lindon, UT) as described previously. In brief, 300 μM peptides were dissolved in PBS and injected into the chamber containing 30 μM of rhesus monkey IgG. The experiments were carried out at 25 °C. The time between injections was 300 s, and the stirring speed was 300 rpm. The heats of dilution were determined in control experiments by injecting peptides into PBS and then subtracting from the heats produced in the corresponding peptide-IgG binding experiments. Data acquisition and analysis were performed using the Origin software, and the best fitting curves were generated with GraphPad Prism.
Background: Isothermal titration calorimetry measures the heat released or taken up as one component is titrated into another.

In data set [6] the test system is HIV-1 JR-CSF. Briefly: Prophylactic efficacy against HIV-1 challenge in humanized mice. Format: in vivo, humanized NRG (NRG-hu HSC) mice. The settings on record: for cell-associated HIV-1 DNA and RNA in spleen and bone marrow: day 28 post-infection, real-time PCR; for mice HIV-1 viremia-positive at 7 dpi / mice with viremia at 14 dpi / viral load at 7 dpi: humanized mice; for mice HIV-1 viremia-positive at 7 dpi: 20 mg/kg i.p. 2 h before challenge, 6 h post-infection and daily for 3 days, CP24 n = 8, IBP-CP24 n = 7; for mice with viremia at 14 dpi / viral load at 7 dpi: 20 mg/kg i.p. prophylactic regimen; for viral load at 7 dpi: plasma HIV-1 RNA. Here is the method:
The mice were challenged with HIV-1 JR-CSF (5 ng p24/mouse) through retro-orbital injection at 2 h post-treatment. Then the mice were treated with PBS or peptides at 6 hours post-infection and once every day for 3 consecutive days. Plasma samples were obtained for viral load determination at days 0, 7, 14, 21 and 28 post-infection.
HIV-1 genomic RNA was purified from plasma by using the QIAamp Viral RNA Mini Kit. The RNA was reverse-transcribed and quantitatively detected by real-time PCR with the TaqMan Fast Virus 1-Step PCR kit (Thermo Fisher Scientific). We used the forward primer 5’-[…]-3’ and the reverse primer 5’-[…]-3’ to detect the HIV gag gene. The probe (FAM-[…]-QSY7) used for detection was ordered from Applied Biosystems, and the reactions were set up following the manufacturer’s guidelines and were run on the QuantStudio 6 Flex PCR system (Applied Biosystems). The limit of detection of each real-time PCR was 4 copies per reaction. Accordingly, owing to the relatively small volume of plasma in mice (about 50–100 μL total blood), the limit of detection was 400 copies/mL plasma. The copy numbers below the detectable limit were set as 1. Triplicate reactions were performed for each sample.
To evaluate cell-associated HIV-1 DNA, total DNA was extracted from mouse spleen and bone marrow cells using the DNeasy Mini Kit (Qiagen). HIV-1 DNA was quantified by real-time PCR. DNA from serial dilutions of ACH2 cells, which contain 1 copy of the HIV genome in each cell, was used to create a standard curve.
To detect cell-associated HIV-1 RNA, total cell RNA was extracted from mouse spleen and bone marrow cells using the RNeasy Plus Mini Kit (Qiagen). The RNA was reverse-transcribed to cDNA and then quantified by real-time PCR, as described above. DNA from serial dilutions of ACH2 cells was used to generate a standard curve.
On the technique in general: In qPCR the cycle at which signal appears reflects the starting amount.

The subject of data set [7] is H9/HIV-1IIIB target cells with PBMC effector cells. The data set can be described thus: ADCC assay, 10E8-mediated lysis. Format: cell-based, human. The settings on record: peptide up to 20 μM added to 10E8. Here is the method:
H9/HIV-1IIIB cells expressing HIV-1 Env (2.5 × 10^4 cells) as the target cells were seeded into a 96-well plate (25 μL/well), and the mixture of a serially diluted inhibitors and 10E8 (1.5 μg/mL) was added to the culture plate. PBMC (AllCells) as effector cells (2.5 × 10^4 cells in 25 μL) were cocultured with the mixture-treated target cells at 37 °C overnight, and the […] activity was measured using the CytoTox-ONE Homogeneous Membrane Integrity Assay (Promega).

The conditions of data set [8]: rhesus monkeys, 10 mg/kg i.v. daily for one month, within two months; indirect ELISA. The procedure:
After incubation at 4 °C for 2 h and washes with PBS-T for three times, we added the serially 10-fold diluted plasma of the PBS- or peptide-treated rhesus monkeys. Goat Anti-Monkey IgG H&L (HRP) (Abcam) were incubated for 1 h at 37 °C and washed for five times.

Data set [9] concerns HIV-1 IIIB (subtype B, X4). The format is cell-based. The note with it: for IC50: IIIB (subtype B, X4).
Protocol: as §1

T1 sequence (P04578 546-581): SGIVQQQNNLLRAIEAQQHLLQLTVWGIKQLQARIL

Regarding “MTWEEWDKKIEEYTKKIEELIKKS [CP24, reference compound]”, in [1], the t1/2 is 1.37 h, the “AUC(0-t)” value was 237.88 µg·h/mL, the Cmax was 77.82 µg/mL and the “MRT 0-inf_obs” value is 3.17 h. In addition, the Tmax in [1] is 2 h. The molecule also yielded an IC50 in [2] of 0.0101 µM. Besides, in data set [3], the “Tm of the 6-HB formed with N36” value turned out to be 78.69 °C. Further, in [4], the “binding to human IgG” value is recorded as “could not bind with human IgG”. This molecule had a Kd in data set [5] of 1000 µM. Also, in data set [6], the “cell-associated HIV-1 DNA and RNA in spleen and bone marrow” value is on record as “high levels”; the “mice HIV-1 viremia-positive at 7 dpi” value is reported as 50%; the “mice with viremia at 14 dpi” value was 62.5%; the “viral load at 7 dpi” value is “about 3.6 log10 copies/mL”. Further, the “effect on 10E8-mediated lytic activity” value in [7] is recorded as “remained about the same”. In [8], the “peptide-specific antibodies in plasma” value is recorded as “no significant detectable antibodies”. The molecule also came in with an IC50 in [9] of 0.0195 µM.

As for `CC[C@H](C)[C@H](NC(=O)[C@H](CC(C)C)NC(=O)[C@H](CCC(=O)O)NC(=O)[C@H](CCC(=O)O)NC(=O)[C@@H](NC(=O)[C@H](CCCCN)NC(=O)[C@H](CCCCN)NC(=O)[C@@H](NC(=O)[C@H](Cc1ccc(O)cc1)NC(=O)[C@H](CCC(=O)O)NC(=O)[C@H](CCC(=O)O)NC(=O)[C@@H](NC(=O)[C@H](CCCCN)NC(=O)[C@H](CCCCN)NC(=O)[C@H](CC(=O)O)NC(=O)[C@H](Cc1c[nH]c2ccccc12)NC(=O)[C@H](CCC(=O)O)NC(=O)[C@H](CCC(=O)O)NC(=O)[C@H](Cc1c[nH]c2ccccc12)NC(=O)[C@@H](NC(=O)[C@H](CCSC)NC(=O)[C@@H](NC(=O)[C@@H]1CSSC[C@H](NC(=O)[C@@H](N)CC(=O)O)C(=O)N[C@@H](C)C(=O)N[C@@H](Cc2c[nH]c3ccccc23)C(=O)N[C@@H](Cc2c[nH]cn2)C(=O)N[C@@H](CC(C)C)C(=O)NCC(=O)N[C@@H](CCC(=O)O)C(=O)N[C@@H](CC(C)C)C(=O)N[C@@H](C(C)C)C(=O)N[C@@H](Cc2c[nH]c3ccccc23)C(=O)N1)[C@@H](C)O)[C@@H](C)O)[C@@H](C)CC)[C@@H](C)O)[C@@H](C)CC)C(=O)N[C@@H](CCCCN)C(=O)N[C@@H](CCCCN)C(=O)N[C@@H](CO)C(=O)O` [IBP-CP24] (H-DCAWHLGELVWCTMTWEEWDKKIEEYTKKIEELIKKS-OH; disulfide 2-12; N-terminus and C-terminus assumed), in data set [1], the t1/2 is reported as 44.81 h, the “AUC(0-t)” value is 3610.65 µg·h/mL, the Cmax was 76.23 µg/mL and the “MRT 0-inf_obs” value is listed as 61.39 h. For the same molecule, the Tmax in [1] is 4 h. Besides, in [2], the “fold more potent than CP24 against HIV-1 Bal” value is given as ~2.9 fold and the IC50 came to 0.00257 µM. For the same molecule, in [3], the “Tm of the 6-HB formed with N36” value was 85.25 °C. For the same molecule, the “binding to human IgG” value in data set [4] is recorded as “higher binding affinity with human IgG than IBP alone”. Also, the Kd in data set [4] (read-out: Estimated Kd of binding to human IgG, ELISA on peptide-coated plate, one site specific binding fit, ± SE, three replicates per point) is 0.177 µM. Moreover, binding in [5] was put at a Kd of 0.946 µM. Also, in data set [6], the “cell-associated HIV-1 DNA and RNA in spleen and bone marrow” value is on record as “undetectable”; the “mice HIV-1 viremia-positive at 7 dpi” value was 28.5%; the “mice with viremia at 14 dpi” value stood at 28.5%; the “viral load at 7 dpi” value is “about 2.5 log10 copies/mL”. In data set [7], the “effect on 10E8-mediated lytic activity” value is “remained about the same”. In addition, the “peptide-specific antibodies in plasma” value in [8] was “no significant detectable antibodies”. In data set [9], the “fold more potent than CP24 against HIV-1 IIIB” value is given as “about 2.3 fold” and it took 0.0059 µM to reach half-maximal inhibition (IC50).
